Tested on: SEM cells
Assay: cell viability relative to DMSO control; higher = less cytotoxic
Details: 48 h
Procedure, shortened: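 Library compounds in DMSO were pin-dosed into 1536-well plates (5 μl) holding NOMO1 or SEM (500 cells/well) or P12-Ichikawa (1000 cells/well) leukemia cells, across an 11-point threefold series of 47 μM to 0.79 nM. Each cell line had been adapted for at least four passages in each medium. CellTiter-Glo One luminescence was read after 48 h at 37°C. Viability is the per-plate percentage relative to DMSO wells, with cell-free wells as background.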

[1] = HPLM + 10% dialyzed FBS, 0.000781 µM
[2] = HPLM + 10% dialyzed FBS, 0.00234 µM
[3] = HPLM + 10% dialyzed FBS, 0.00702 µM
[4] = HPLM + 10% dialyzed FBS, 0.0211 µM
[5] = HPLM + 10% dialyzed FBS, 0.0632 µM
[6] = HPLM + 10% dialyzed FBS, 0.19 µM
[7] = HPLM + 10% dialyzed FBS, 0.569 µM
[8] = HPLM + 10% dialyzed FBS, 1.71 µM
[9] = HPLM + 10% dialyzed FBS, 5.12 µM
[10] = HPLM + 10% dialyzed FBS, 15.4 µM
[11] = HPLM + 10% dialyzed FBS, 46.1 µM
[12] = RPMI 5 mM glucose + 10% FBS, 0.000781 µM
[13] = RPMI 5 mM glucose + 10% FBS, 0.00234 µM
[14] = RPMI 5 mM glucose + 10% FBS, 0.00702 µM
[15] = RPMI 5 mM glucose + 10% FBS, 0.0211 µM
[16] = RPMI 5 mM glucose + 10% FBS, 0.0632 µM
[17] = RPMI 5 mM glucose + 10% FBS, 0.19 µM
[18] = RPMI 5 mM glucose + 10% FBS, 0.569 µM
[19] = RPMI 5 mM glucose + 10% FBS, 1.71 µM
[20] = RPMI 5 mM glucose + 10% FBS, 5.12 µM
[21] = RPMI 5 mM glucose + 10% FBS, 15.4 µM
[22] = RPMI 5 mM glucose + 10% FBS, 46.1 µM
[23] = RPMI 5 mM glucose + 10% dialyzed FBS, 0.000781 µM
[24] = RPMI 5 mM glucose + 10% dialyzed FBS, 0.00234 µM
[25] = RPMI 5 mM glucose + 10% dialyzed FBS, 0.00702 µM
[26] = RPMI 5 mM glucose + 10% dialyzed FBS, 0.0211 µM
[27] = RPMI 5 mM glucose + 10% dialyzed FBS, 0.0632 µM
[28] = RPMI 5 mM glucose + 10% dialyzed FBS, 0.19 µM
[29] = RPMI 5 mM glucose + 10% dialyzed FBS, 0.569 µM
[30] = RPMI 5 mM glucose + 10% dialyzed FBS, 1.71 µM
[31] = RPMI 5 mM glucose + 10% dialyzed FBS, 5.12 µM
[32] = RPMI 5 mM glucose + 10% dialyzed FBS, 15.4 µM
[33] = RPMI 5 mM glucose + 10% dialyzed FBS, 46.1 µM

| SMILES | cell viability [1] | cell viability [2] | cell viability [3] | cell viability [4] | cell viability [5] | cell viability [6] | cell viability [7] | cell viability [8] | cell viability [9] | cell viability [10] | cell viability [11] | cell viability [12] | cell viability [13] | cell viability [14] | cell viability [15] | cell viability [16] | cell viability [17] | cell viability [18] | cell viability [19] | cell viability [20] | cell viability [21] | cell viability [22] | cell viability [23] | cell viability [24] | cell viability [25] | cell viability [26] | cell viability [27] | cell viability [28] | cell viability [29] | cell viability [30] | cell viability [31] | cell viability [32] | cell viability [33] |
| --- | --- | --- | --- | --- | --- | --- | --- | --- | --- | --- | --- | --- | --- | --- | --- | --- | --- | --- | --- | --- | --- | --- | --- | --- | --- | --- | --- | --- | --- | --- | --- | --- | --- |
| Cc1nc(N)ncc1-c1nc(N2CCOCC2)c2sc(C(C)(C)O)cc2n1 | 97.7% | 114% | 118% | 118% | 113% | 40.1% | 14.2% | 9.64% | 8.13% | 7.64% | 5.09% | 92.7% | 85.3% | 78.2% | 74.2% | 13.6% | 11.7% | 9.07% | 7.73% | 6.03% | 5.59% | 4.95% | 115% | 130% | 112% | 122% | 79.5% | 17.6% | 13% | 9.39% | 7.85% | 6.82% | 5.41% |
| Clc1ccccc1C(c1ccccc1)(c1ccccc1)n1ccnc1 | 118% | 114% | 126% | 121% | 117% | 119% | 112% | 55.8% | 103% | 104% | 73.3% | 117% | 110% | 126% | 123% | 118% | 108% | 106% | 53.3% | 101% | 86.6% | 69.6% | – | – | – | – | – | – | – | – | – | – | – |
| CS[C@H]1SC[C@@H]2C(=O)N(C)[C@H](C(C)C)C(=O)OC[C@H](NC(=O)c3cnc4ccccc4n3)C(=O)N[C@H](C)C(=O)N(C)[C@H]1C(=O)N(C)[C@H](C(C)C)C(=O)OC[C@H](NC(=O)c1cnc3ccccc3n1)C(=O)N[C@H](C)C(=O)N2C | 81.1% | 59% | 37.5% | 14.2% | 7.27% | 7.08% | 7.54% | 7.91% | 7.3% | 6% | 5.18% | 76.5% | 47.9% | 25.6% | 9.07% | 6.95% | 7.44% | 7.22% | 7.34% | 7.64% | 6.82% | 5% | 66.4% | 44.7% | 34.2% | 11.8% | 7.65% | 8.72% | 8.82% | 8.65% | 8.6% | 7.68% | 5.52% |
| C[C@@H](N)C1CC[C@@H](CC1)C(=O)NC2=CC=NC=C2 (stereo partly drawn) | 91.8% | 117% | 107% | 108% | 103% | 106% | 129% | 129% | 119% | 122% | 120% | 94% | 99.3% | 99.8% | 90.3% | 103% | 108% | 112% | 115% | 104% | 109% | 113% | 93.7% | 107% | 111% | 121% | 117% | 114% | 131% | 120% | 114% | 116% | 114% |
| CCOC(=O)[C@@H](N)CCC(=O)N[C@@H](CSCc1ccccc1)C(=O)N[C@@H](C(=O)OCC)c1ccccc1 | 84.5% | 105% | 99.8% | 103% | 104% | 111% | 109% | 116% | 119% | 97.1% | 102% | – | – | – | – | – | – | – | – | – | – | – | – | – | – | – | – | – | – | – | – | – | – |
| CC(C)(C)C1=CC(=C(NC(=O)C/2=C/NC3=C(C=CC=C3)C2=O)C=C1O)C(C)(C)C | 122% | 118% | 128% | 123% | 113% | 131% | 124% | 124% | 109% | 108% | 103% | 109% | 108% | 126% | 113% | 120% | 111% | 129% | 129% | 123% | 116% | 108% | 98.7% | 101% | 103% | 99.9% | 101% | 103% | 115% | 97.8% | 110% | 110% | 94.7% |
| CCCCCCCCCCCC/1=C(O)/C(=O)/C=C(O)\C1=O | 98.9% | 111% | 126% | 132% | 128% | 138% | 118% | 144% | 130% | 127% | 130% | – | – | – | – | – | – | – | – | – | – | – | 107% | 120% | 126% | 132% | 131% | 138% | 134% | 140% | 137% | 146% | 129% |
| Oc1ccc([C@@H]2Oc3ccc(O)cc3[C@@H]3CCC[C@@H]32)cc1 | 71.9% | 90.5% | 91.8% | 92% | 80.2% | 90.6% | 38.7% | 81.9% | 89.3% | 31.4% | 21.6% | 60.6% | 103% | 97.5% | 103% | 106% | 111% | 44.4% | 103% | 104% | 40.3% | 18.1% | 80.4% | 94.9% | 98.4% | 97% | 96.1% | 104% | 102% | 103% | 94.9% | 29% | 18.4% |
| NCCc1ccc(O)c(O)c1 | 119% | 137% | 121% | 133% | 130% | 132% | 131% | 110% | 109% | 86% | 8.51% | 113% | 136% | 123% | 123% | 127% | 139% | 122% | 96.5% | 128% | 107% | 18.6% | 99% | 124% | 107% | 111% | 123% | 111% | 109% | 105% | 107% | 95.2% | 11.5% |

Reference: the supplement of paper PMC11451515
